Source: patent publication US7897582B2, “Oligonucleotide compositions and methods for the modulation of the expression of B7 protein” (Isis Pharmaceuticals, Inc., priority 2003, dated 2011)
Strand notation (5' to 3'): a small letter for the sugar, then the base; units joined by * are phosphorothioate-linked, units joined directly phosphodiester-linked; [ ] holds rarer units or linkages, { } end groups; capitals alone tell only the bases. e = 2'-O-(2-methoxyethyl) (MOE); [5mC] = 5-methylcytosine; d = 2'-deoxy (DNA)

Test system: human B7.2 mRNA
Experiment: Human B7.2 mRNA levels in THP-1 cells by quantitative real-time PCR (Example 27)
Type: cell-based
Parameters: concentration or dose not given beside the values
Description: In accordance with the present invention, an additional series of antisense compounds were designed to target different regions of the human B7.2 RNA, using published sequences (GenBank accession number U04343.1, incorporated herein as SEQ ID NO: 295, GenBank accession number BC040261.1, incorporated herein as SEQ ID NO: 296 and GenBank accession number NT—005543.12, a portion of which is incorporated herein as SEQ ID NO: 297). “Target site” indicates the first (5′-most) nucleotide number on the particular target sequence to which the compound binds. All compounds in Table 25 are chimeric oligonucleotides (“gapmers”) 20 nucleotides in length, composed of a central “gap” region consisting of ten 2′-deoxynucleotides, which is flanked on both sides (5′ and 3′ directions) by five-nucleotide “wings”. The wings are composed of 2′-methoxyethyl (2′-MOE)nucleotides. The internucleoside (backbone) linkages are phosphorothioate (P═S) throughout the oligonucleotide. All cytidine residues are 5-methylcytidines. The compounds were analyzed for their effect on human B7.2 mRNA levels in THP-1 cells by quantitative real-time PCR as described in other examples herein. Data are averages from three experiments. If present, “N.D.” indicates “no data”.

Row | Substance | % INHIB (inhibition of human B7.2 mRNA levels) [%]
1 | 323642 (antisense e[5mC]*eT*eT*eG*eT*dG*d[5mC]*dG*dG*d[5mC]*d[5mC]*d[5mC]*dA*dT*dA*eT*eA*e[5mC]*eT*eT) [compound 323642] | 27
2 | 323643 (antisense eA*eT*e[5mC]*eA*eA*dA*dA*d[5mC]*dT*dT*dG*dT*dG*d[5mC]*dG*eG*e[5mC]*e[5mC]*e[5mC]*eA) [compound 323643] | 80
3 | 323644 (antisense e[5mC]*e[5mC]*e[5mC]*eT*eT*dG*dT*d[5mC]*d[5mC]*dT*dT*dG*dA*dT*d[5mC]*eT*eG*eA*eA*eG) [compound 323644] | 71
4 | 323645 (antisense eA*e[5mC]*eA*eA*eG*d[5mC]*d[5mC]*d[5mC]*dT*dT*dG*dT*d[5mC]*d[5mC]*dT*eT*eG*eA*eT*e[5mC]) [compound 323645] | 56
5 | 323646 (antisense eT*eT*eG*eA*eT*dA*d[5mC]*dA*dA*dG*d[5mC]*d[5mC]*d[5mC]*dT*dT*eG*eT*e[5mC]*e[5mC]*eT) [compound 323646] | 33
6 | 323647 (antisense eA*eT*eA*e[5mC]*eA*dT*dT*dG*dA*dT*dA*d[5mC]*dA*dA*dG*e[5mC]*e[5mC]*e[5mC]*eT*eT) [compound 323647] | 41
7 | 323648 (antisense eT*eG*eG*eA*eT*dG*dA*dT*dA*d[5mC]*dA*dT*dT*dG*dA*eT*eA*e[5mC]*eA*eA) [compound 323648] | 31
8 | 323649 (antisense eG*eA*eA*eT*eT*d[5mC]*dA*dT*d[5mC]*dT*dG*dG*dT*dG*dG*eA*eT*eG*e[5mC]*eG) [compound 323649] | 81
9 | 323650 (antisense eG*eT*eT*e[5mC]*eA*dG*dA*dA*dT*dT*d[5mC]*dA*dT*d[5mC]*dT*eG*eG*eT*eG*eG) [compound 323650] | 92
10 | 323651 (antisense eT*eG*eA*e[5mC]*eA*dG*dT*dT*d[5mC]*dA*dG*dA*dA*dT*dT*e[5mC]*eA*eT*e[5mC]*eT) [compound 323651] | 64
11 | 323652 (antisense eA*eG*e[5mC]*eA*e[5mC]*dT*dG*dA*d[5mC]*dA*dG*dT*dT*d[5mC]*dA*eG*eA*eA*eT*eT) [compound 323652] | 87
12 | 323653 (antisense eT*eA*eG*e[5mC]*eA*dA*dG*d[5mC]*dA*d[5mC]*dT*dG*dA*d[5mC]*dA*eG*eT*eT*e[5mC]*eA) [compound 323653] | 96
13 | 323654 (antisense eT*eG*eA*eA*eG*dT*dT*dA*dG*d[5mC]*dA*dA*dG*d[5mC]*dA*e[5mC]*eT*eG*eA*e[5mC]) [compound 323654] | 87
14 | 323655 (antisense eT*eT*eG*eA*e[5mC]*dT*dG*dA*dA*dG*dT*dT*dA*dG*d[5mC]*eA*eA*eG*e[5mC]*eA) [compound 323655] | 65
15 | 323656 (antisense e[5mC]*eT*eA*eT*eT*dT*d[5mC]*dA*dG*dG*dT*dT*dG*dA*d[5mC]*eT*eG*eA*eA*eG) [compound 323656] | 76
16 | 323657 (antisense eT*e[5mC]*eT*eG*eT*dT*dA*dT*dA*dT*dT*dA*dG*dA*dA*eA*eT*eT*eG*eG) [compound 323657] | 43
17 | 323658 (antisense eG*e[5mC]*eA*eG*eG*dT*d[5mC]*dA*dA*dA*dT*dT*dT*dA*dT*eG*eT*eA*e[5mC]*eA) [compound 323658] | 36
18 | 323659 (antisense eG*eT*eA*eT*eA*dG*dA*dT*dG*dA*dG*d[5mC]*dA*dG*dG*eT*e[5mC]*eA*eA*eA) [compound 323659] | 56
19 | 323660 (antisense eG*eG*eG*eT*eA*dA*d[5mC]*d[5mC]*dG*dT*dG*dT*dA*dT*dA*eG*eA*eT*eG*eA) [compound 323660] | 71
20 | 323661 (antisense eA*eG*eG*eT*eT*d[5mC]*dT*dG*dG*dG*dT*dA*dA*d[5mC]*d[5mC]*eG*eT*eG*eT*eA) [compound 323661] | 68
21 | 323662 (antisense eT*eA*eG*e[5mC]*eA*dA*dA*dA*d[5mC]*dA*d[5mC]*dT*d[5mC]*dA*dT*e[5mC]*eT*eT*e[5mC]*eT) [compound 323662] | 22
22 | 323663 (antisense eG*eT*eT*e[5mC]*eT*dT*dA*dG*d[5mC]*dA*dA*dA*dA*d[5mC]*dA*e[5mC]*eT*e[5mC]*eA*eT) [compound 323663] | 23

Row | Substance | % INHIB (inhibition of human B7.2 mRNA levels) [%]
23 | 323664 (antisense eA*eT*eT*e[5mC]*eT*dT*dG*dG*dT*dT*d[5mC]*dT*dT*dA*dG*e[5mC]*eA*eA*eA*eA) [compound 323664] | 35
24 | 323665 (antisense eG*eA*eT*eA*eG*dT*dT*dG*dA*dA*dT*dT*d[5mC]*dT*dT*eG*eG*eT*eT*e[5mC]) [compound 323665] | 43
25 | 323666 (antisense eA*e[5mC]*e[5mC]*eA*eT*d[5mC]*dA*dT*dA*d[5mC]*dT*d[5mC]*dG*dA*dT*eA*eG*eT*eT*eG) [compound 323666] | 71
26 | 323667 (antisense eA*eT*e[5mC]*eT*eT*dG*dA*dG*dA*dT*dT*dT*d[5mC]*dT*dG*e[5mC]*eA*eT*eA*eA) [compound 323667] | 52
27 | 323668 (antisense eA*e[5mC]*eA*eT*eT*dA*dT*d[5mC]*dT*dT*dG*dA*dG*dA*dT*eT*eT*e[5mC]*eT*eG) [compound 323668] | 39
28 | 323669 (antisense e[5mC]*eG*eT*eA*e[5mC]*dA*dG*dT*dT*d[5mC]*dT*dG*dT*dG*dA*e[5mC]*eA*eT*eT*eA) [compound 323669] | 68
29 | 323670 (antisense eA*eG*eA*e[5mC]*eA*dA*dG*d[5mC]*dT*dG*dA*dT*dG*dG*dA*eA*eA*e[5mC]*eG*eT) [compound 323670] | 19
30 | 323671 (antisense eG*eA*eA*eA*e[5mC]*dA*dG*dA*d[5mC]*dA*dA*dG*d[5mC]*dT*dG*eA*eT*eG*eG*eA) [compound 323671] | 26
31 | 323672 (antisense eG*eG*eA*eA*eT*dG*dA*dA*dA*d[5mC]*dA*dG*dA*d[5mC]*dA*eA*eG*e[5mC]*eT*eG) [compound 323672] | 33
32 | 323673 (antisense e[5mC]*eA*eT*e[5mC]*eA*dG*dG*dG*dA*dA*dT*dG*dA*dA*dA*e[5mC]*eA*eG*eA*e[5mC]) [compound 323673] | 38
33 | 323674 (antisense e[5mC]*eG*eT*eA*eA*d[5mC]*dA*dT*d[5mC]*dA*dG*dG*dG*dA*dA*eT*eG*eA*eA*eA) [compound 323674] | 47
34 | 323675 (antisense eA*eG*e[5mC]*eT*e[5mC]*dT*dA*dT*dA*dG*dA*dG*dA*dA*dA*eG*eG*eT*eG*eA) [compound 323675] | 77
35 | 323676 (antisense e[5mC]*e[5mC]*eT*e[5mC]*eA*dA*dG*d[5mC]*dT*d[5mC]*dT*dA*dT*dA*dG*eA*eG*eA*eA*eA) [compound 323676] | 24
36 | 323677 (antisense eG*eG*eA*eG*eG*d[5mC]*dT*dG*dA*dG*dG*dG*dT*d[5mC]*d[5mC]*eT*e[5mC]*eA*eA*eG) [compound 323677] | 55
37 | 323678 (antisense eA*eG*eT*eA*e[5mC]*dA*dG*d[5mC]*dT*dG*dT*dA*dA*dT*d[5mC]*e[5mC]*eA*eA*eG*eG) [compound 323678] | 23
38 | 323679 (antisense eT*eT*eG*eG*eA*dA*dG*dT*dA*d[5mC]*dA*dG*d[5mC]*dT*dG*eT*eA*eA*eT*e[5mC]) [compound 323679] | 60
39 | 323680 (antisense eA*eT*eA*eA*eT*dA*dA*d[5mC]*dT*dG*dT*dT*dG*dG*dA*eA*eG*eT*eA*e[5mC]) [compound 323680] | 51
40 | 323681 (antisense e[5mC]*eA*eT*e[5mC]*eA*d[5mC]*dA*d[5mC]*dA*dT*dA*dT*dA*dA*dT*eA*eA*e[5mC]*eT*eG) [compound 323681] | 8
41 | 323682 (antisense eT*e[5mC]*e[5mC]*eA*eT*dT*dT*d[5mC]*d[5mC]*dA*dT*dA*dG*dA*dA*eT*eT*eA*eG*eA) [compound 323682] | 35
42 | 323683 (antisense eT*e[5mC]*eT*eT*e[5mC]*dT*dT*d[5mC]*d[5mC]*dA*dT*dT*dT*d[5mC]*d[5mC]*eA*eT*eA*eG*eA) [compound 323683] | 16
43 | 323684 (antisense eA*eT*eT*eT*eA*dT*dA*dA*dG*dA*dG*dT*dT*dG*d[5mC]*eG*eA*eG*eG*e[5mC]) [compound 323684] | 32
44 | 323685 (antisense eT*eT*eG*eG*eT*dT*d[5mC]*d[5mC]*dA*d[5mC]*dA*dT*dT*dT*dA*eT*eA*eA*eG*eA) [compound 323685] | 18
